The values below come from patent US7361679B2, “2-phenyl-3-heteroarylpropionic acid derivative or salt thereof and medicine containing the same” (Kaken Pharmaceutical Co., Ltd., priority 2001, dated 2008).

The target in test [1] is T1, VLA-4/VCAM-1 (Homo sapiens, UniProt P05556+P13612).
T1 construct: endogenous in cells; host or cells: HL-60 cells (VLA-4, endogenous); CHO cells transfected with a human VCAM-1 gene (the ligand VCAM-1)
The experiment in a line: VLA-4/VCAM-1 adhesion inhibition test (BCECF-labelled HL-60 cells adhering to VCAM-1 expressing CHO cells). The format is cell-based. The settings on record: adhesion of VLA-4 expressing HL-60 cells to CHO cells transfected with human VCAM-1 gene; read-out: 50% inhibition concentration. The method, then:
Test Example 1 VLA-4/VCAM-1 Adhesion Inhibition Test
The above VCAM-1 expressing CHO cells were placed in a 96-well culture plate in amount of 7×10^3 cells per well and cultured in Ham's F-12 medium containing 10 wt % fetal calf serum (FCS) for 3 days until a confluent state was satisfied. The HL-60 cells were re-floated in Hanks' solution containing 0.4 wt % bovine serum albumin (BSA), and 5 μM of 2′,7′-bis(carboxyethyl)-5(6)-carboxyfluorescein penta acetoxy methyl ester (BCECF-AM) was added to label the cells. Solutions having various concentrations of each test substance and having an amount of 20 μl each were added to 180 μl each of suspensions of BCECF-labeled HL-60 cells re-floated at a rate of 4×10^6 cells/ml in the FCS-non-containing RPMI 1640 culture medium, and pre-treated at 37° C. for 15 minutes.
Then, the pre-treated HL-60 cells were stratified in the 96-well plate culturing the VCAM-1 expressing CHO cells at a rate of 2×10^5 cells per well, and allowed to adhere thereto at 37° C. for 5 minutes. Then, the plate was filled with 0.4 wt % BSA Hanks, covered with a plate sealer and turned upside down. Further, the cells were cultured for 45 minutes. After washing, 1 wt % NP-40-containing PBS was added to destroy the cells, and the thus-obtained supernatants were measured for fluorescence intensity with a cyto Fluor 2300 fluorescence measurement system (supplied by Millipore).
Further, as a blank, 1 wt % NP-40-containing PBS was measured for fluorescence intensity. Further, as standards, a fluorescence-labeled HL-60 floating liquid was added to 1 wt % NP-40-containing PBS at a rate of 2×10^5, 10^5, 2×10^4 and 10^4 cells/ml, the cells were destroyed, and the thus-obtained supernatants were measured for fluorescence intensity.
Each test substance was measured as described above, and on the basis of the calibration curve prepared from the measurements of the standard, cells in a control and cells adhering to the VCAM-1 expressive CHO cells due to the addition of the test substances were measured for numbers, and cell adhesion inhibition ratios (%) were calculated on the basis of the following equation.
Cell adhesion inhibition ratio (%)=100×[1−(number of adhered cells of groups to which the test substance was added/number of adhered cells of control groups)

Test [2] addresses T2, LPAM-1/VCAM-1 (Homo sapiens, UniProt P13612+P26010).
T2 sequence (P13612 34-1032): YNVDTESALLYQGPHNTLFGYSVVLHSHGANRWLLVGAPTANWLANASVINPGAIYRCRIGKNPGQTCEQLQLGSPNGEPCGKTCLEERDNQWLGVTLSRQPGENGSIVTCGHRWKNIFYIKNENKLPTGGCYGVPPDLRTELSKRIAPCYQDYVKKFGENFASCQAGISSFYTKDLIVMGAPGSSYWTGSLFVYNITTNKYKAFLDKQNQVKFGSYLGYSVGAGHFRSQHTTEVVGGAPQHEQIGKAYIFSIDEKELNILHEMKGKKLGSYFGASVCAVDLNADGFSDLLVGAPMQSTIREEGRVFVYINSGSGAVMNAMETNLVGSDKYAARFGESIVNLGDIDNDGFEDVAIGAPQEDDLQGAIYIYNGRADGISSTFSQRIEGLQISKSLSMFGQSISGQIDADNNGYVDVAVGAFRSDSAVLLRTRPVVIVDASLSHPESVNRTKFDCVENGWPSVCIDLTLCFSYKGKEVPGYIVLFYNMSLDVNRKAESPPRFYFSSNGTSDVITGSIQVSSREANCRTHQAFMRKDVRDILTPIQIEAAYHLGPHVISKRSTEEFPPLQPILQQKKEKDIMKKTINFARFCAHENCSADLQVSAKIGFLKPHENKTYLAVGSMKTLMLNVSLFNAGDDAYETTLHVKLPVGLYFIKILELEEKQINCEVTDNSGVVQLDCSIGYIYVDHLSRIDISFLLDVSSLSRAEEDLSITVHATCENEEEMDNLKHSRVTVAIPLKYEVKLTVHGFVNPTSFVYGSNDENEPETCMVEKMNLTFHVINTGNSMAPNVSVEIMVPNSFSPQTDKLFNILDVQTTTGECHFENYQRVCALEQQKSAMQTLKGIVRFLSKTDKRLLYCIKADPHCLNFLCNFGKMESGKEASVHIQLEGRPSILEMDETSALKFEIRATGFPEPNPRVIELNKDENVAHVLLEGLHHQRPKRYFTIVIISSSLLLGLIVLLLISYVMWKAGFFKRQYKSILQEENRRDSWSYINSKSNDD
T2 sequence (P26010 20-798): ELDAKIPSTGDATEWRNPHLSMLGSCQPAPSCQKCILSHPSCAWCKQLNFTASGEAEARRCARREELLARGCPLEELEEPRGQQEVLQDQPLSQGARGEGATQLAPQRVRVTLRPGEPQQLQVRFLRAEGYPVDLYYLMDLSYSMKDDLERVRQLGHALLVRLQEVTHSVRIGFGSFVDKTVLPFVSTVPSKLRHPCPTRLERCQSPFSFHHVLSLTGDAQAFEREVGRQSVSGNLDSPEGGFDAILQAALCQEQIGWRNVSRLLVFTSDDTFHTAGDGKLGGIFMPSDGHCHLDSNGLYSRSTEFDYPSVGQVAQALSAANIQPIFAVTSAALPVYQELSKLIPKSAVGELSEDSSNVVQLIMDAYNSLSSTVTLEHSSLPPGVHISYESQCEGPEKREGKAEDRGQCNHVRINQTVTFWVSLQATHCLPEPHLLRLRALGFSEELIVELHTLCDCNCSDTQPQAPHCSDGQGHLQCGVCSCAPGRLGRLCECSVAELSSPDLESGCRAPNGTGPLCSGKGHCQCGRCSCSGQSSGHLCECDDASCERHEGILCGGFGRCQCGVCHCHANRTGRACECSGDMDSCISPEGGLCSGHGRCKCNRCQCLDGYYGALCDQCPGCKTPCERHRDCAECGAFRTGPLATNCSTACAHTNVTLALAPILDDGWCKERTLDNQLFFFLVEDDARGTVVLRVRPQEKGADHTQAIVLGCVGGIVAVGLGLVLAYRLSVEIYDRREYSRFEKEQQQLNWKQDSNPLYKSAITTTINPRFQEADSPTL
The experiment in a line: LPAM-1/VCAM-1 adhesion inhibition test. The format is cell-based.

T1 sequence (P05556 21-798, one chain of several): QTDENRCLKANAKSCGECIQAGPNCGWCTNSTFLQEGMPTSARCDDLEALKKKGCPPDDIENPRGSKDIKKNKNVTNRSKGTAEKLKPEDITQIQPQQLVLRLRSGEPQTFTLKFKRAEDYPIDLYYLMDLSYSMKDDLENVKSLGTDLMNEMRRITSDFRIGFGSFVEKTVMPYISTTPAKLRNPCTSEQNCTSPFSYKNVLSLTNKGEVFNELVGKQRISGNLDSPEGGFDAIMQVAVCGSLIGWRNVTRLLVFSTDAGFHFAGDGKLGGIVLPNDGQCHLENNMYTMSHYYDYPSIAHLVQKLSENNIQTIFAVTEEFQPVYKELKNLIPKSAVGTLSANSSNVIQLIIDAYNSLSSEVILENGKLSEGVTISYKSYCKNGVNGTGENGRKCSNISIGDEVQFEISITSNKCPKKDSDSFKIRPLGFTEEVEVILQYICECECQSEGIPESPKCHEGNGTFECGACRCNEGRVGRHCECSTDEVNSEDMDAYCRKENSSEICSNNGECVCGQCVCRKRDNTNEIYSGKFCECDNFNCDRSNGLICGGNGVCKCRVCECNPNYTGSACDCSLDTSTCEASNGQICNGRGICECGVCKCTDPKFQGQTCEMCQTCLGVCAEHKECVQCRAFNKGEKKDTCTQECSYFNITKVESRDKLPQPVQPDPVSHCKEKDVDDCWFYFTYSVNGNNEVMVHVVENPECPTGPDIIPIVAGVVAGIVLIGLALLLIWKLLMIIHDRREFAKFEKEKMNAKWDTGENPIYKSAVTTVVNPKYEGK

Take `COc1ccc(C(Cc2ccc(NC(=O)c3c(Cl)cccc3Cl)nc2)C(=O)O)cc1N(CC(C)C)C(=O)C(C)C` (centres unmarked) [Example 2]: the IC50 in test [1] worked out at 12 nM.
With `CCOc1ccc(C(Cc2ccc(NC(=O)c3c(Cl)cccc3Cl)nc2)C(=O)O)cc1N(CC(C)C)C(=O)C(CC)CC` (centres unmarked) [Example 7], the IC50 in test [1] came out at 7.3 nM.
As for `CCOc1ccc(C(Cc2ccc(NC(=O)c3c(Cl)cccc3Cl)nc2)C(=O)O)cc1N(CC(C)C)C(=O)C(C)C` (centres unmarked) [Example 5], the IC50 in test [1] stood at 48 nM.
On the same count and under the same terms, for `CCOc1ccc(C(Cc2ccc(NC(=O)c3c(Cl)cccc3Cl)nc2)C(=O)O)cc1N(CC(C)C)C(=O)C(C)(C)C` (centres unmarked) [Example 6] the value was 13 nM.
For `COc1ccc(C(Cc2ccc(NC(=O)c3c(Cl)cncc3Cl)nc2)C(=O)O)cc1N(CC(C)C)C(=O)C(C)(C)C` (centres unmarked) [Example 9], in test [1], the IC50 is 2.8 nM. For the same compound, in test [2], the adhesion inhibition activity result is recorded as “adhesion inhibition activity was found”.
Turning to `CCOc1ccc(C(Cc2ccc(NC(=O)c3c(Cl)cncc3Cl)nc2)C(=O)O)cc1N(CC(C)C)C(=O)C(C)(C)C` (centres unmarked) [Example 10], in test [1], the IC50 was determined as 1.2 nM. In addition, in test [2], the adhesion inhibition activity result is “adhesion inhibition activity was found”.
For `COc1ccc(C(Cc2ccc(NC(=O)c3c(Cl)cccc3Cl)nc2)C(=O)O)cc1N(CC(C)C)C(=O)C(C)(C)C` (centres unmarked) [Example 1, 3-[2-(2,6-dichlorobenzoylamino)pyrid-5-yl]-2-{3-[(2,2-dimethylpropionyl)isobutylamino]-4-methoxyphenyl}propionic acid], the IC50 in test [1] came to 3 nM. The adhesion inhibition activity result in test [2] is given as “adhesion inhibition activity was found”.
As for `CCC(CC)C(=O)N(CC(C)C)c1cc(C(Cc2ccc(NC(=O)c3c(Cl)cccc3Cl)nc2)C(=O)O)ccc1OC` (centres unmarked) [Example 3], the IC50 in test [1] was 33 nM.
